The subject of series [1] is whole blood sample. As to the kind of experiment: Visual inspection of stored whole blood sample for clotted, insoluble material. Also noted: species or system human. The method, then:
(§1) Relative stability of platelets was examined with respect to a range of concentrations of variegin (SEQ ID NO:1). Experiments were performed as described above, using either collagen or adenosine diphosphate (ADP) as agonists, all per manufacturer's recommended protocols. Table 2 lists a qualitative assessment of stability, namely how long after initially drawing the blood was platelet aggregation measureable above the effective instrument baseline, the time to first visual observation of clotted, insoluble material in the whole blood sample, and an assessment of the severity or extent of the presence of this insoluble material was also recorded.
These peptides were used as the blood stabilization agent, and were spiked into blood immediately after collection into an empty, evacuated blood collection tube, achieving a final concentration of 150 μM. The blood was allowed to dwell in a whole-blood state at room temperature, until assayed for platelet aggregation potential, all as described in Example 1. Agonists used included collagen and ADP, following manufacturer's instructions. Table 4 lists a qualitative assessment of stability, namely how long after initially drawing the sample was platelet aggregation measureable above the effective instrument baseline. Additionally, the time to first visual observation of clotted, insoluble material in the whole blood sample, and an assessment of the severity or extent of the presence of this insoluble material was also recorded. In some cases, only visual characterization of the amount of insoluble material was reported, without having performed any platelet aggregation measurements.
(§2) The results are shown in Table 5 which lists additives alone or in combination that were spiked into freshly drawn whole blood samples. […] For some of the conditions tested, only a subset of these three parameters was recorded.

A further series has as its system platelets. In words: Whole blood impedance aggregometry (Multiplate): platelet aggregation after room temperature storage of drawn blood. It is filed as cell-based, human. Conditions: for Time after blood draw where aggregation was still measurable above baseline: Table 5, collagen and/or ADP.
Description: The blood was allowed to stand at room temperature, in undisturbed aliquots, until tested at the times indicated. Samples were inverted several times immediately prior to testing, to re-suspend blood cells that naturally settle over time.
Measurements: Testing of platelet function (which in this experiment, was aggregation activity) was done using the Multiplate instrument (Verum Diagnostics, Munich, Germany), which uses whole blood as the sample and an increase in impedance as the measurement of platelet aggregation. The instrument was used per manufacturer's instructions. Briefly, 300 microliters of isotonic saline was warmed in each reaction cuvette, and to this was added 300 microliters of the whole blood sample. In reactions where aspirin or other platelet antagonists (inhibitors) were added in vitro, 20 microliters (μL) of a stock solution of aspirin was spiked into the samples. The aggregation reaction was initiated by addition of a platelet agonist, in this case collagen, at 3.2 μg/ml and volume (20 μl) per manufacturer's instructions. Upon addition of the collagen, the impedance measurements began automatically, and were continued for 6 minutes, representing the full course along the x-axis in the graphs shown in FIG. 2. The graphs show platelet aggregation, as reported by impedance, as an arbitrary unitless measurement on the y-axis, over the 6-minute run time on the x-axis. Traces shown are raw platelet aggregation data delivered from the instrument. […] Representative data are shown for blood that dwells at room temperature after the initial draw for 1 hr, 24 hr, 48 hr, and 72 hr. Data are shown for the blood itself, as well for blood pre-treated with aspirin to inhibit platelet function immediately prior to testing.
The experiments were performed as described in Example 1. In this case, the data are plotted as a function of time that the blood sample dwells outside of the body (x-axis) versus platelet function as shown as the area under the curve (AUC) as one representation of the platelet aggregation signal. AUC is the integrated signal from the raw data traces shown in Example 1, and also is reported as a unitless measurement. The effective background level of the instrument is drawn as a dashed line across the bottom of the graph. Any AUC measurement of aggregation at or below this level was considered so weak as to be unreportable, essentially representing a “null” data level.
as §1
These peptides were used as the blood stabilization agent, and were spiked into blood immediately after collection into an empty, evacuated blood collection tube, achieving a final concentration of 150 μM. The blood was allowed to dwell in a whole-blood state at room temperature, until assayed for platelet aggregation potential, all as described in Example 1. Agonists used included collagen and ADP, following manufacturer's instructions.

In series [2] the test system is whole blood sample. In words: Visual inspection of stored whole blood sample for hemolysis. It is filed as cell-based, human.
Description: Skilled practitioners will appreciate the hemolyzed samples are an obvious visual clue that damage to blood cells has occurred, either during the collection, transport, or storage of blood samples. Although hemolysis is not necessarily detrimental to any one clinical assay, it is a well known interference for some tests, and thus it is preferable to avoid causing hemolysis. Hemolysis can be measured by visual scale (e.g., mild or slightly pink, moderate or noticeably red, or severe or dark red). Hemolysis can also be measured by spectroscopic measurement of the red color of the hemoglobin itself, and can be reported by the concentration of hemoglobin released into the serum or plasma (e.g., such that less than about 20 mg/dL concentration of released hemoglobin, or to an extent that the hemoglobin concentration cannot be measured visually or by spectroscopy represents “minor or negligible” hemolysis, about 20 to about 100 mg/dL represents “mild” hemolysis, about 100 to about 300 represents “moderate” hemolysis, or greater than about 300 mg/dL represents “severe” hemolysis).
as §2

For another series, the target named is thrombin (Homo sapiens, UniProt P00734). The settings on record: reported in Koh; cited from earlier work.
Setting [3] is: relatively high concentration, used alone.

`C[C@@H]1CCN(C(=O)[C@H](CCCN=C(N)N)NS(=O)(=O)c2cccc3c2NC[C@H](C)C3)[C@@H](C(=O)O)C1` [Argatroban, (2R,4R)-1-[(2S)-5-(diaminomethylideneamino)-2-[[(3R)-3-methyl-1,2,3,4-tetrahydroquinolin-8-yl]-sulfonylamino]pentanoyl]-4-methyl-piperidine-2-carboxylic acid, reference compound]: the onset of clotting entry in the series with whole blood sample [1] (setting [3]) was “faster onset of clotting”. The “Time after blood draw where aggregation was still measurable above baseline” value with platelets (additive alone at 50 μM) is recorded as 30 h; in the series on platelets (additive alone at 75 μM) it was 24 h; in the series on platelets (additive alone at 100 μM) it was 24 h. Besides, the “time for stability of the sample for platelet aggregation measurements” value in the series on platelets (setting [3]) was “less time for stability of the sample for platelet aggregation measurements”. In addition, the “Visual inspection for hemolysis” value in the series with whole blood sample [2] (Table 5, additive alone at 100 μM) was “Extensive”. In the series on whole blood sample [2] (setting [3]), the hemolysis entry is “extensive amounts of hemolysis”.
Turning to “MHKTAPPFDFEAIPEEYLDDES (Synthetic Peptide Variegin Fragment) [Ct22]”, the “time after blood draw to solid clotting of the sample” value in the series on whole blood sample [1] (peptide 150 μM, room temperature) was “clots solidly within one hour”. The “thrombin inhibition for therapeutic purposes” value with thrombin was “effective thrombin inhibitor”.
